{
  "source": "paper PMC2720045",
  "about": "(Proteins, 2009)",
  "key": {"[1]": {"target": "T1, porcine pepsin (Sus scrofa, UniProt P00791)", "T1 sequence (P00791 60-385)": "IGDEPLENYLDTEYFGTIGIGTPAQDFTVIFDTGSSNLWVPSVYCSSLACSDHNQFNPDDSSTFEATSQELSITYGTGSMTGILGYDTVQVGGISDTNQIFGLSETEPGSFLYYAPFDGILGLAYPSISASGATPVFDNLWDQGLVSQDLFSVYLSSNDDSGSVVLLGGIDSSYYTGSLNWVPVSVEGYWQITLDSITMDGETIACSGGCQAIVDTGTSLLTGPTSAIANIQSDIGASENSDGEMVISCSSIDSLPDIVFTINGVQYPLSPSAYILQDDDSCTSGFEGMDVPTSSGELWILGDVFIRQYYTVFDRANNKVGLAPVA", "assay": "Kinetic inhibition of pepsin", "type": "biochemical", "settings": "for Inhibition of pepsin under the screening conditions: 175 μM substrate, pH 3.0-3.2, 28 °C; for inhibition at 16 µM: pH 3, read-out: Inhibition of pepsin under the screening conditions"}, "[2]": {"target": "T2, PRD25N (HIV-1 protease D25N mutant) (Human immunodeficiency virus type 1, UniProt P03367, D525N, form not given)", "assay": "DSC thermal denaturation of PRD25N with inhibitors", "type": "binding", "settings": "inhibitor 28 μM, pH 4.8-5.0; unliganded PRD25N 58.4"}, "[3]": {"target": "PRD29N (HIV-1 protease D29N mutant) (Human immunodeficiency virus type 1, UniProt P03367, D529N, form not given)", "settings": "inhibitor 28 μM, pH 4.8-5.0; unliganded PRD29N 59.0"}, "[4]": {"target": "T3, mature HIV-1 protease (PR) (Human immunodeficiency virus type 1, UniProt P03367)", "settings": "cited from earlier work; for Kd: read-out: KL at 25 °C PR (lit.), 25 °C; for Binding constant (Ka), PR / ΔH of binding, PR / −TΔS of binding, PR: ITC, pH 5"}, "[5]": {"target": "T1, porcine pepsin", "assay": "ITC titration of pepsin with inhibitors", "type": "binding", "settings": "for binding constant (KL) from curve fitting of ITC data, pepsin / stoichiometry of binding to pepsin: 28 °C; for binding constant (KL) from curve fitting of ITC data, pepsin: 50 mM sodium formate pH 3; for stoichiometry of binding to pepsin: pH 3"}, "[6]": {"target": "T3, mature HIV-1 protease (PR)", "settings": "cited from earlier work"}, "[7]": {"target": "T2, PRD25N (HIV-1 protease D25N mutant)", "settings": "cited from earlier work"}, "[8]": {"tested_on": "PRD25N (HIV-1 protease D25N mutant)", "assay": "DSC thermal denaturation of PRD25N with inhibitors", "type": "binding", "settings": "DSC"}, "[9]": {"target": "T1, porcine pepsin", "assay": "DSC of pepsin with inhibitors", "type": "binding", "settings": "DSC pH 3; […] (APV) or 2-fold (Ac-PEP) molar excess; unliganded pepsin Tm 74.2"}, "[10]": {"tested_on": "P. falciparum", "settings": "cited from earlier work"}, "[11]": {"settings": "Tm with inhibitor minus Tm without, twofold molar excess"}},
  "note": "Entries after “also recorded” stand apart in the source; their conditions may differ. Like-named read-outs stand apart in the source and are kept apart here.",
  "data": [
    {"compound": "CC(C)(C)NC(=O)[C@@H]1CN(Cc2cccnc2)CCN1C[C@@H](O)C[C@@H](Cc1ccccc1)C(=O)N[C@H]1c2ccccc2C[C@H]1O", "note": "[INV, Indinavir]", "values": [
      {"measurement": "Inhibition of pepsin under the screening conditions", "setting": "[1]; 16 μM inhibitor", "result": "undetected; also recorded: did not inhibit"}
    ]},
    {"compound": "acetyl pepstatin [Ac-PEP]", "values": [
      {"measurement": "Tm PRD25N", "setting": "[2]", "result": 58.8, "unit": "°C"},
      {"measurement": "Tm PRD29N", "setting": "[3]", "result": 58.3, "unit": "°C"},
      {"measurement": "Kd", "setting": "[4]", "result": 440, "unit": "nM"}
    ]},
    {"compound": "CC(C)c1nc(CN(C)C(=O)N[C@H](C(=O)N[C@@H](Cc2ccccc2)C[C@H](O)[C@H](Cc2ccccc2)NC(=O)OCc2cncs2)C(C)C)cs1", "note": "[RTV, Ritonavir]", "values": [
      {"measurement": "Tm PRD25N", "setting": "[2]", "result": 61.1, "unit": "°C"},
      {"measurement": "inhibition at 16 µM", "setting": "[1]", "result": "75 to 95", "unit": "%"},
      {"measurement": "Tm PRD29N", "setting": "[3]", "result": 66.1, "unit": "°C"},
      {"measurement": "Binding constant (Ka), PR", "setting": "[4]", "result": "(1.0 ± 0.1) × 10^10 M^−1"},
      {"measurement": "ΔH of binding, PR", "setting": "[4]", "result": -4.3, "unit": "kcal/mol"},
      {"measurement": "−TΔS of binding, PR", "setting": "[4]", "result": -9.4, "unit": "kcal/mol"}
    ]},
    {"compound": "CC(C)CN(C[C@@H](O)[C@H](Cc1ccccc1)NC(=O)O[C@H]1CO[C@H]2OCC[C@H]21)S(=O)(=O)c1ccc(N)cc1", "note": "[DRV, Darunavir]", "values": [
      {"measurement": "Ki", "setting": "[1]", "result": 2140, "unit": "nM"},
      {"measurement": "Kd", "setting": "[5]", "result": 1540, "unit": "nM"},
      {"measurement": "difference in ΔG for binding to the two enzymes (PR and pepsin)", "setting": "[5]", "result": 7200, "unit": "kcal/mol"},
      {"measurement": "binding constant (KL) from curve fitting of ITC data, pepsin", "setting": "[5]", "result": "(6.5 ± 0.6) × 10^5 M"},
      {"measurement": "stoichiometry of binding to pepsin", "setting": "[5]; ITC", "result": "0.90 ± 0.01"},
      {"measurement": "−TΔS of binding, pepsin", "setting": "[5]; ITC, pH 3, 28 °C", "result": -2.0, "unit": "kcal/mol"},
      {"measurement": "Tm PRD29N", "setting": "[3]", "result": 72.7, "unit": "°C"},
      {"measurement": "−TΔS of binding, PR", "setting": "[4]", "result": -3.1, "unit": "kcal/mol"},
      {"measurement": "ΔTm PR", "setting": "[6]; [11]", "result": 22.4, "unit": "°C"},
      {"measurement": "Tm PR", "setting": "[6]; twofold molar excess of inhibitor, unliganded PR 65.7", "result": 88.1, "unit": "°C"},
      {"measurement": "ΔTm PRD25N", "setting": "[7]; [11]", "result": 3.1, "unit": "°C"},
      {"measurement": "Tm PRD25N", "setting": "[7]; twofold molar excess of inhibitor, unliganded PRD25N 58.4", "result": 61.5, "unit": "°C"}
    ]},
    {"compound": "O=C1N(Cc2ccc(CO)cc2)[C@H](Cc2ccccc2)[C@H](O)[C@@H](O)[C@@H](Cc2ccccc2)N1Cc1ccc(CO)cc1", "note": "[DMP323]", "values": [
      {"measurement": "Tm PRD25N", "setting": "[2]", "result": 67.3, "unit": "°C"},
      {"measurement": "ΔTm ratio ΔTm(PR)/ΔTm(PRD25N)", "setting": "[8]", "result": "1-2"},
      {"measurement": "Inhibition of pepsin under the screening conditions", "setting": "[1]; 24 μM inhibitor", "result": "undetected"},
      {"measurement": "Tm PRD29N", "setting": "[3]", "result": 69.2, "unit": "°C"},
      {"measurement": "Kd", "setting": "[4]", "result": 3.8, "unit": "nM"}
    ]},
    {"compound": "COC(=O)N[C@H](C(=O)N[C@@H](Cc1ccccc1)[C@@H](O)CN(Cc1ccc(-c2ccccn2)cc1)NC(=O)[C@@H](NC(=O)OC)C(C)(C)C)C(C)(C)C", "note": "[ATV, Atazanavir]", "values": [
      {"measurement": "Tm PRD25N", "setting": "[2]", "result": 61.4, "unit": "°C"},
      {"measurement": "Inhibition of pepsin under the screening conditions", "setting": "[1]; 16 μM inhibitor", "result": "undetected; also recorded: no detectable inhibition; also recorded: did not inhibit"},
      {"measurement": "Tm PRD29N", "setting": "[3]", "result": 71.7, "unit": "°C"},
      {"measurement": "Kd", "setting": "[4]", "result": 0.035, "unit": "nM"}
    ]},
    {"compound": "Cc1cccc(C)c1OCC(=O)N[C@@H](Cc1ccccc1)[C@@H](O)C[C@H](Cc1ccccc1)NC(=O)[C@H](C(C)C)N1CCCNC1=O", "note": "[LPV, Lopinavir]", "values": [
      {"measurement": "inhibition at 16 µM", "setting": "[1]", "result": "≤ 50", "unit": "%"}
    ]},
    {"compound": "Cc1c(O)cccc1C(=O)N[C@@H](CSc1ccccc1)[C@H](O)CN1C[C@H]2CCCC[C@H]2C[C@H]1C(=O)NC(C)(C)C", "note": "[NFV, Nelfinavir]", "values": [
      {"measurement": "inhibition at 16 µM", "setting": "[1]", "result": "≤ 50", "unit": "%"}
    ]},
    {"compound": "CC(C)(C)NC(=O)[C@@H]1C[C@@H]2CCCC[C@@H]2CN1C[C@@H](O)[C@H](Cc1ccccc1)NC(=O)[C@H](CC(N)=O)NC(=O)c1ccc2ccccc2n1", "note": "[SQV, Saquinavir]", "values": [
      {"measurement": "Tm PRD25N", "setting": "[2]", "result": 62.6, "unit": "°C"},
      {"measurement": "inhibition at 16 µM", "setting": "[1]", "result": "≤ 50", "unit": "%"},
      {"measurement": "Tm PRD29N", "setting": "[3]", "result": 72.3, "unit": "°C"}
    ]},
    {"compound": "CCC[C@@]1(CCc2ccccc2)CC(O)=C([C@H](CC)c2cccc(NS(=O)(=O)c3ccc(C(F)(F)F)cn3)c2)C(=O)O1", "note": "[TPV, Tipranavir]", "values": [
      {"measurement": "inhibition at 16 µM", "setting": "[1]", "result": "≤ 50", "unit": "%"}
    ]},
    {"compound": "CC(C)CN(C[C@@H](O)[C@H](Cc1ccccc1)NC(=O)O[C@H]1CCOC1)S(=O)(=O)c1ccc(N)cc1", "note": "[APV, Amprenavir]", "values": [
      {"measurement": "Tm PRD25N", "setting": "[2]", "result": 58.7, "unit": "°C"},
      {"measurement": "Ki", "setting": "[1]", "result": 300, "unit": "nM"},
      {"measurement": "inhibition at 16 µM", "setting": "[1]", "result": "75 to 95", "unit": "%"},
      {"measurement": "Kd", "setting": "[5]", "result": 180, "unit": "nM"},
      {"measurement": "binding constant (KL) from curve fitting of ITC data, pepsin", "setting": "[5]", "result": "(5.5 ± 0.5) × 10^6 M"},
      {"measurement": "stoichiometry of binding to pepsin", "setting": "[5]; ITC", "result": "0.97 ± 0.004"},
      {"measurement": "Binding constant (Ka), pepsin", "setting": "[5]; ITC, pH 3, 28 °C", "result": "(5.45 ± 0.5) × 10^6 M^−1"},
      {"measurement": "ΔH of binding, pepsin", "setting": "[5]; ITC, pH 3, 28 °C", "result": "-4.2 ± 0.3", "unit": "kcal/mol"},
      {"measurement": "−TΔS of binding, pepsin", "setting": "[5]; ITC, pH 3, 28 °C", "result": -5.1, "unit": "kcal/mol"},
      {"measurement": "ΔTm pepsin", "setting": "[9]", "result": 2.7, "unit": "°C"},
      {"measurement": "Tm PRD29N", "setting": "[3]", "result": 67.5, "unit": "°C"},
      {"measurement": "Binding constant (Ka), PR", "setting": "[4]", "result": "(5.0 ± 0.3) × 10^9 M^−1"},
      {"measurement": "ΔH of binding, PR", "setting": "[4]", "result": -6.9, "unit": "kcal/mol"},
      {"measurement": "−TΔS of binding, PR", "setting": "[4]", "result": -6.3, "unit": "kcal/mol"},
      {"measurement": "growth of P. falciparum", "setting": "[10]", "result": "did not inhibit"}
    ]}
  ]
}
